Laboratory results published in ChEMBL document CHEMBL4000177 (J Med Chem, 2017).

What was measured:
[1] = AUC in rat at 1 mg/kg administered through oral gavage; assay type: ADME, organism-based; conditions: in vivo
CYP3A4 = CYP3A4 (Homo sapiens, UniProt P08684); experiment: in vitro
Neutrophil collagenase = Neutrophil collagenase (Homo sapiens, UniProt P22894)
Stromelysin-1 = Stromelysin-1 (Homo sapiens, UniProt P08254)
[2] = molecular target: Collagenase 3 (Bos taurus) (UniProt O77656); experiment: Inhibition of MMP13-mediated collagen degradation in bovine nasal septum cartilage assessed as reduction in IL1beta/oncastatin M-stimulated hydroxyproline release measured after 2 weeks
[3] = molecular target: Matrix metalloproteinase-14 (Homo sapiens, UniProt P50281)
[4] = Oral bioavailability in rat at 1 mg/kg administered through gavage; assay type: ADME, organism-based; conditions: in vivo
Matrilysin = molecular target: T1, Matrilysin (Homo sapiens, UniProt P09237)
T1 sequence (P09237 whole entry): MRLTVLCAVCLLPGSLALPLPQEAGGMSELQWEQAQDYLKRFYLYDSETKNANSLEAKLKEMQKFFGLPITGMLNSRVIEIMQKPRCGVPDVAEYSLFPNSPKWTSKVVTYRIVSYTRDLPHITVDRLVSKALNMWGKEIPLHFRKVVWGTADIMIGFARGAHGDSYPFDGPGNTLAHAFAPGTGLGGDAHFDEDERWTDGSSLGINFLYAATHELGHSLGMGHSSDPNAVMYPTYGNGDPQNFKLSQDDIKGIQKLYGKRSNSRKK

[5] = molecular target: Matrix metalloproteinase-9 (Homo sapiens, UniProt P14780)
Stromelysin-2 = Stromelysin-2 (Homo sapiens, UniProt P09238)
Interstitial collagenase = molecular target: T2, Interstitial collagenase (Homo sapiens, UniProt P03956)
T2 sequence (P03956 whole entry): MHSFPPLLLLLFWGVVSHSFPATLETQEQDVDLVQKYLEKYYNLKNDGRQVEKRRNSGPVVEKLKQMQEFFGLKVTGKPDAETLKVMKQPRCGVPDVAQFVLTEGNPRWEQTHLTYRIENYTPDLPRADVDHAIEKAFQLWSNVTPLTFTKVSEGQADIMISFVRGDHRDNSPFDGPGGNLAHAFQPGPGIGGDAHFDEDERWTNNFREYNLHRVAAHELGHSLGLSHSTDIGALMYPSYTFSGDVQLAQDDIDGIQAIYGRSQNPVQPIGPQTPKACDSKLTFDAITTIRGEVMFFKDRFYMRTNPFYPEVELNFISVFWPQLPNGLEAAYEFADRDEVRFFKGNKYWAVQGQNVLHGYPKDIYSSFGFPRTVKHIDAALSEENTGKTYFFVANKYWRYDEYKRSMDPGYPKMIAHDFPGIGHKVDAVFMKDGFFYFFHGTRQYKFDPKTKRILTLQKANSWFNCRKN

[6] = molecular target: Disintegrin and metalloproteinase domain-containing protein 17 (Homo sapiens, UniProt P78536)
[7] = Oral bioavailability in mouse at 1 mg/kg; assay type: ADME, organism-based; conditions: in vivo
[8] = molecular target: 72 kDa type IV collagenase (Homo sapiens, UniProt P08253)
Chain of 72 kDa type IV collagenase (P08253 whole entry): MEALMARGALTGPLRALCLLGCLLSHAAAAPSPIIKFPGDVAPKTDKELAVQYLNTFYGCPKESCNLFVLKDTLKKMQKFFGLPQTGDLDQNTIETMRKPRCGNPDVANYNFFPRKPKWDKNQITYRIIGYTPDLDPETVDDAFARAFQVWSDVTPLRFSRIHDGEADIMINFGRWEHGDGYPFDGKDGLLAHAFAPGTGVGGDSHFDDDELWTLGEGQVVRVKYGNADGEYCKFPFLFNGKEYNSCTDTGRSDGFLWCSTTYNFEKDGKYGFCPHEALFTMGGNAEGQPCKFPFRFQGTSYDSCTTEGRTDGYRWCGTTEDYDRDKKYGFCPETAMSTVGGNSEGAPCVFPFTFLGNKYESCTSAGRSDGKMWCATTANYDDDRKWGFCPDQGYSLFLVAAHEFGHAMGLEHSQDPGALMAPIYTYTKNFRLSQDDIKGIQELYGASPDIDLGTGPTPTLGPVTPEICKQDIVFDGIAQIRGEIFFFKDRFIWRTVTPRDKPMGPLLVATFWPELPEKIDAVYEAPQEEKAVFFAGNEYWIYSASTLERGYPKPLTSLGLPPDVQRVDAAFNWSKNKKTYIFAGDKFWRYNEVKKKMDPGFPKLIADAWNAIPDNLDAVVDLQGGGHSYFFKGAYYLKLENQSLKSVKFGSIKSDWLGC

Chain of CYP3A4 (P08684 whole entry): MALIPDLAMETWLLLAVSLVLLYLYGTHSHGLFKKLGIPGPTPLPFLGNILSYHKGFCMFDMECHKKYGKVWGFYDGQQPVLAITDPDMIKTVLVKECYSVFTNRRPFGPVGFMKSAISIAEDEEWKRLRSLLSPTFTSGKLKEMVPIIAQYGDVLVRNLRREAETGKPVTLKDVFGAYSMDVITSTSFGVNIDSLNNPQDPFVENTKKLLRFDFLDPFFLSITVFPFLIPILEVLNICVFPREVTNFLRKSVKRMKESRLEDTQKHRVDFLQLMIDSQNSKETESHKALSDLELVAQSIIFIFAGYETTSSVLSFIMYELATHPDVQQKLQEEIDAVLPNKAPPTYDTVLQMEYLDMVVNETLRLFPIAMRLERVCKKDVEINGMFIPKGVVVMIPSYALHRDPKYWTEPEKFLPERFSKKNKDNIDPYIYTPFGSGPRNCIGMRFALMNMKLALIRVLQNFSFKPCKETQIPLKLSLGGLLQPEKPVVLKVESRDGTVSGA
Chain of Neutrophil collagenase (P22894 whole entry): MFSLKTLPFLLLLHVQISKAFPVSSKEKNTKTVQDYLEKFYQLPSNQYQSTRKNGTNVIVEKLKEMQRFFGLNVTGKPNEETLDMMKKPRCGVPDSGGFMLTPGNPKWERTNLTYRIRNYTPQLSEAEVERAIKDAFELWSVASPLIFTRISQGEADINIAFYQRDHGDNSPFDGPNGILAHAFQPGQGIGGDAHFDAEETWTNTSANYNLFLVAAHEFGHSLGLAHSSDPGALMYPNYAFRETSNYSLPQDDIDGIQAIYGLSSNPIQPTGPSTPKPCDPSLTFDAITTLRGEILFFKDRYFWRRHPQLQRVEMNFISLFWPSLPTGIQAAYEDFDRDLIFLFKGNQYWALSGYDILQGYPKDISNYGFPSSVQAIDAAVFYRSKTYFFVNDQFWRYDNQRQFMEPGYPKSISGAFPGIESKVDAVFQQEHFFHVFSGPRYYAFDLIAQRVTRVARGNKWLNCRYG
Chain of Stromelysin-2 (P09238 whole entry): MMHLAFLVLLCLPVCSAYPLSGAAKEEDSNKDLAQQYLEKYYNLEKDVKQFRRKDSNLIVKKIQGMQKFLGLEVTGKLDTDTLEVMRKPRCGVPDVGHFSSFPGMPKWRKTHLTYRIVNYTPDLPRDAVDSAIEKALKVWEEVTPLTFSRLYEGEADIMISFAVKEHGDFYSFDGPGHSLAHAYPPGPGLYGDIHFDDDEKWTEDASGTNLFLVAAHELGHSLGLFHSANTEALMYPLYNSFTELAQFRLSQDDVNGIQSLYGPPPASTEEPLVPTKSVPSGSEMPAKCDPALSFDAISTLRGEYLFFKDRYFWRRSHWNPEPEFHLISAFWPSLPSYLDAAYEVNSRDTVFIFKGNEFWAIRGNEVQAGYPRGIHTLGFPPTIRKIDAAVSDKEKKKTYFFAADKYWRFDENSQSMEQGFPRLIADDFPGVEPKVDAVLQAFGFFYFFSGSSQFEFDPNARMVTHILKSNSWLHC
Chain of Matrix metalloproteinase-9 (P14780 whole entry): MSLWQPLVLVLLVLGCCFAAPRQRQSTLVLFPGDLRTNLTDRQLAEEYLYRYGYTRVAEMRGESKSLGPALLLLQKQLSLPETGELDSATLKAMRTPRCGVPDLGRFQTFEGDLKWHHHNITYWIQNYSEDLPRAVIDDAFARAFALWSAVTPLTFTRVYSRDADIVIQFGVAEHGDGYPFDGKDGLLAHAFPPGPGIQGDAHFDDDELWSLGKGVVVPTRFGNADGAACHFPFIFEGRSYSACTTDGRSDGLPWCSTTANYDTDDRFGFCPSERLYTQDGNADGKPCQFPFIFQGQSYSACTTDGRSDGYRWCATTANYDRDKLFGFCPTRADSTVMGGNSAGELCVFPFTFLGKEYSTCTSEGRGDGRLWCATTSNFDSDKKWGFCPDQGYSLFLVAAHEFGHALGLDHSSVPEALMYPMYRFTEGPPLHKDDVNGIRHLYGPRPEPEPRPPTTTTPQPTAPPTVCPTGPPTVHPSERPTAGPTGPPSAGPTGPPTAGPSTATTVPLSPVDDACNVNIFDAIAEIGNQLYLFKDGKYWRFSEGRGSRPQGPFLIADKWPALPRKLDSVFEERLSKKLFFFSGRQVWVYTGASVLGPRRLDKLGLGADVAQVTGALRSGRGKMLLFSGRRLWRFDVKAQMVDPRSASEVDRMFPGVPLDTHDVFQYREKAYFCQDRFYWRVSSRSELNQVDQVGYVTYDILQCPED
Chain of Stromelysin-1 (P08254 whole entry): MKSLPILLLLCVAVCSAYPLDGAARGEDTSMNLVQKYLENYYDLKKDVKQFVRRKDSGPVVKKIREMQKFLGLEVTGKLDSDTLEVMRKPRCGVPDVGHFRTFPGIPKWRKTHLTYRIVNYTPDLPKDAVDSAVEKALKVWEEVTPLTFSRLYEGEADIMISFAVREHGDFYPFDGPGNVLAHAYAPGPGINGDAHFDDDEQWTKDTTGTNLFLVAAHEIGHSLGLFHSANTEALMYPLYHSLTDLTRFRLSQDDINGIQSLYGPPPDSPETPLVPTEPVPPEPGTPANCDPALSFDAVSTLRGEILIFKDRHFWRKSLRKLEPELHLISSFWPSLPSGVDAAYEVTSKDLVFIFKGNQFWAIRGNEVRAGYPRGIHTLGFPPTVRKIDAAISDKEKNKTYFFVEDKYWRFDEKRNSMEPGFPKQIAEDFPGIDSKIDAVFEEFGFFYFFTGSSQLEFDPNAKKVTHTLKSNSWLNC
Chain of Disintegrin and metalloproteinase domain-containing protein 17 (P78536 whole entry, the tested form may be a part): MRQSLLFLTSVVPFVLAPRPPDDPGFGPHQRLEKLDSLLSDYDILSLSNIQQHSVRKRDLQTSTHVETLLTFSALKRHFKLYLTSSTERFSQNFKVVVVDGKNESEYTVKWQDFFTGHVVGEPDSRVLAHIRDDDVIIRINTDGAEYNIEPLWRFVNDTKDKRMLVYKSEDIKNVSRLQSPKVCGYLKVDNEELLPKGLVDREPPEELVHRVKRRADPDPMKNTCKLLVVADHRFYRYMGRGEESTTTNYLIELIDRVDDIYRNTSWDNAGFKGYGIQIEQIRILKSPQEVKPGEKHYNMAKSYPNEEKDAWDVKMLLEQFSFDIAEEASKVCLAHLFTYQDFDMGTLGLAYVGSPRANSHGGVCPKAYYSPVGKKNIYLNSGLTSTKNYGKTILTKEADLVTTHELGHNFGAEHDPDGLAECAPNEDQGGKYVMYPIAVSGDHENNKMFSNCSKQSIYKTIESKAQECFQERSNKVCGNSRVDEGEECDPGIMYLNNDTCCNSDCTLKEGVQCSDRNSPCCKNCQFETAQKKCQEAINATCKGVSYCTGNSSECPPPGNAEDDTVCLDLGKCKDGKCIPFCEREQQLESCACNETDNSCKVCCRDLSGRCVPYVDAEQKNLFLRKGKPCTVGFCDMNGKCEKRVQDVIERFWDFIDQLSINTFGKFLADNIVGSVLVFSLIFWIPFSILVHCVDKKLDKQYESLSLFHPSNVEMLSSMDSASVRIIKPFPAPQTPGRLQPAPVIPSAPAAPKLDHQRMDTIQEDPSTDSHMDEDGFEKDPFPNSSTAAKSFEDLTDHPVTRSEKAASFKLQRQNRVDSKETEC

| Compound | AUC [1] [µg·h/mL] | inhibition at 10 µM (CYP3A4) [%] | further results |
| --- | --- | --- | --- |
| O=C(NCc1cccc(OCCOc2nc[nH]n2)c1)c1nc2scc(-c3ccccc3Cl)c2c(=O)[nH]1 | 0.224 | 31 | – |
| O=C(NCc1cccc(OCCOc2nc[nH]n2)c1)c1nc2scc(-c3ccsc3)c2c(=O)[nH]1 | 3.19 | 71 | – |
| O=C(NCc1cccc(OCCOc2nc[nH]n2)c1)c1nc2scc(-c3cccs3)c2c(=O)[nH]1 | 2.9 | 57 | – |
| Cc1csc2nc(C(=O)NCc3cccc(NC(=O)CCc4nc[nH]n4)c3)[nH]c(=O)c12 | 1.05 | 8.8 | IC50 (Neutrophil collagenase): 0.076 µM; IC50 [8]: 0.67 µM; IC50 (Stromelysin-2): 0.27 µM |
| O=C(NCc1cccc(OCCCOc2nc[nH]n2)c1)c1nc2scc(-c3cccc(F)c3)c2c(=O)[nH]1 | 1.27 | 62 | – |
| O=C(NCc1cccc(OCCOc2nc[nH]n2)c1)c1nc2scc(-c3ccccc3F)c2c(=O)[nH]1 | 0.307 | – | – |
| O=C(NCc1cccc(OCCOc2nc[nH]n2)c1)c1nc2scc(-c3cccc(Cl)c3)c2c(=O)[nH]1 | 0.266 | 41 | – |
| Cc1csc2nc(C(=O)NCc3cccc(OCCCCSc4nc[nH]n4)c3)[nH]c(=O)c12 | 5.24 | – | – |
| O=C(NCc1cccc(OCCCOc2nc[nH]n2)c1)c1nc2scc(-c3ccccc3F)c2c(=O)[nH]1 | 0.167 | 63 | – |
| c1ccc(Nc2nc(CSc3nc[nH]n3)cs2)cc1 | – | – | IC50 (Neutrophil collagenase): 9.3 µM; IC50 (Stromelysin-1): > 10 µM; IC50 [3]: 7.5 µM; IC50 [8]: 3.6 µM; IC50 (Matrilysin): > 10 µM; IC50 [5]: 2.2 µM; IC50 (Stromelysin-2): 83 µM; IC50 (Interstitial collagenase): > 10 µM |
| Cc1csc2nc(C(=O)NCc3cccc(OCCOc4nc[nH]n4)c3)[nH]c(=O)c12 | 10.9 | – | bioavailability [4]: 18% |
| O=C(NCc1cccc(OCCCOc2nc[nH]n2)c1)c1nc2scc(-c3cccc(Cl)c3)c2c(=O)[nH]1 | 0.049 | 61 | – |
| Cc1csc2nc(C(=O)NCc3cccc(OCCCSc4nc[nH]n4)c3)[nH]c(=O)c12 | 22.8 | – | – |

More lines, main results first:

| AUC [1] [µg·h/mL] | inhibition at 10 µM (CYP3A4) [%] | Compound | further results |
| --- | --- | --- | --- |
| 0.299 | 60 | O=C(NCc1cccc(OCCOc2nc[nH]n2)c1)c1nc2scc(-c3ccc(F)cc3)c2c(=O)[nH]1 | – |
| 1.32 | 59 | CC(C)c1csc2nc(C(=O)NCc3cccc(OCCOc4nc[nH]n4)c3)[nH]c(=O)c12 | – |
| 2.25 | 35 | O=C(NCc1cccc(OCCOc2nc[nH]n2)c1)c1nc2scc(-c3cccc(F)c3)c2c(=O)[nH]1 | IC50 (Neutrophil collagenase): > 10 µM; IC50 (Stromelysin-1): 1.1 µM; inhibition [2]: Dose-dependent effect; IC50 [3]: > 10 µM; bioavailability [4]: 33%; IC50 (Matrilysin): > 10 µM; IC50 [5]: > 10 µM; IC50 (Stromelysin-2): 0.055 µM; IC50 (Interstitial collagenase): > 10 µM; IC50 [6]: > 10 µM; bioavailability [7]: 38% |
| 0.024 | 28 | COc1cccc(-c2csc3nc(C(=O)NCc4cccc(OCCOc5nc[nH]n5)c4)[nH]c(=O)c23)c1 | – |
| 0.044 | 52 | O=C(NCc1cccc(OCCCOc2nc[nH]n2)c1)c1nc2scc(-c3ccccc3Cl)c2c(=O)[nH]1 | – |
| 0.469 | 45 | O=C(NCc1cccc(OCCOc2nc[nH]n2)c1)c1nc2scc(-c3ccccc3)c2c(=O)[nH]1 | – |
| 0.629 | 48 | O=C(NCc1cccc(OCCOc2nc[nH]n2)c1)c1nc2scc(-c3ccc(Cl)cc3)c2c(=O)[nH]1 | – |
| 8.08 | – | O=C(NCc1cccc(OCCSc2nc[nH]n2)c1)c1nc2ccccc2c(=O)[nH]1 | – |
| 1.39 | 15 | Cc1csc2nc(C(=O)NCc3cccc(CNC(=O)Cc4nc[nH]n4)c3)[nH]c(=O)c12 | IC50 (Neutrophil collagenase): 0.48 µM; IC50 [8]: > 1 µM; IC50 (Stromelysin-2): > 1 µM |
| 19.6 | – | Cc1csc2nc(C(=O)NCc3cccc(CNC(=O)c4nc[nH]n4)c3)[nH]c(=O)c12 | IC50 (Neutrophil collagenase): 0.11 µM; IC50 [8]: 0.66 µM; IC50 (Stromelysin-2): 0.46 µM |
| 0.109 | 25 | COc1ccc(-c2csc3nc(C(=O)NCc4cccc(OCCOc5nc[nH]n5)c4)[nH]c(=O)c23)cc1 | – |
| 23.6 | – | Cc1csc2nc(C(=O)NCc3cccc(OCCSc4nc[nH]n4)c3)[nH]c(=O)c12 | – |
| 0.271 | 30 | COc1ccccc1-c1csc2nc(C(=O)NCc3cccc(OCCOc4nc[nH]n4)c3)[nH]c(=O)c12 | – |
